These results are taken from publication PMC6021032, “Antimycobacterial activity of nitrogen heterocycles derivatives: 7-(pyridine-4-yl)-indolizine derivatives. Part VII^8–12” (Journal of Enzyme Inhibition and Medicinal Chemistry, 2017).

Series [1] has as its system Mycobacterium tuberculosis H37Rv. The series is described as follows: Primary screen (Cycle 1): MIC, IC50, IC90 under aerobic conditions. Format: cell-based.
A further series relates to Mycobacterium avium. Briefly: MIC against nontuberculous mycobacteria (Alamar blue). Format: cell-based. To be noted: M. avium. (In general: The colour change of resazurin is a common sign of viable cells or microbes.)
Series [2] has as its system THP-1 human monocytic cell line. The series is described as follows: Cytotoxicity, THP-1 cell viability (CellTiter-Glo). To be noted: read-out: Cytotoxicity IC50; THP-1 cells, 50% loss in viability, 3 days. On the technique in general: In ATP-based viability assays light output follows the ATP content of the culture.
The test system of series [3] is THP-1 cell line infected with Mtb. Briefly: Intracellular activity assay, luminescence. Format: cell-based, Mycobacterium tuberculosis. To be noted: Mtb-infected THP-1 cells, 72 h. On the procedure: Since the overall efficacy of any anti TB drug will be improved by its ability to traffic into the macrophage phagosome containing replicating bacteria, we evaluated the intracellular activity of compounds[24]. This was measured by using THP-1 cell line infected with Mtb. Infected cells were exposed to compounds for 72 h and viable bacterial counts were measured using luminescence as a measure of intracellular growth.
Assay (Promega) which uses ATP as an indicator of cell viability. Relative luminescent units (RLU) were measured using a Biotek Synergy 4 plate reader. The dose response curve was fitted using the Levenberg–Marquardt algorithm. The IC50 was defined as the compound […]
Intracellular Activity Assay
The activity of compounds against intracellular bacteria was determined by measuring viability in infected THP-1 cell after 3 days in the presence of test compounds. Compounds were prepared as 10-point three-fold serial dilutions in DMSO. The highest concentration of […]
THP-1 cells were cultured in complete RPMI and differentiated into macrophage-like cells using 80 nM PMA overnight at 37°C, 5% CO2. THP-1 cells were infected with a luminescent strain of H37Rv (which constitutively expresses luxABCDE) at a multiplicity of infection of 1 and incubated overnight at 37°C, 5% CO2. Infected cells were recovered using Accutase/EDTA solution, washed twice with PBS to remove extracellular bacteria and seeded into assay pates. Compound dilutions were added to a final DMSO concentration of 0.5%.
Assay plates were incubated for 72 h at 37°C, 5% CO2. Each run included isoniazid as a control. Relative luminescent units (RLU) were measured using a Biotek Synergy 2 plate reader. The dose response curve was fitted using the Levenberg–Marquardt algorithm. The […]
inhibition of growth respectively.
3. Cycle 3 – Absorption, distribution, metabolism, excretion and toxicity (ADMET)
3.1. Plasma Protein Binding Assay
Compounds were added to human plasma at a fixed concentration of 5 µM. The mixture was dialyzed in a RED device (Rapid Equilibrium Dialysis, Pierce) against PBS and incubated on an orbital shaker for 4 h at 37 °C. Aliquots from plasma and PBS sides were collected; an equal volume of PBS was added to the plasma sample, and an equal volume of plasma was added to the PBS sample. Three volumes of methanol (containing the internal binding standard propranolol) was added to precipitate the proteins and release the compound.
Each compound was tested in duplicate. Samples were centrifuged, the supernatant was […]

A further series concerns Mtb H37Rv. The series is described as follows: LORA parallel plates, oxygen-deprived bacteria incubated under aerobic conditions (normal oxygen). Format: cell-based, Mycobacterium tuberculosis.
Another series concerns M. tuberculosis H37Rv. The series is described as follows: Cycle 2 repeat of MIC, IC50, IC90 under aerobic conditions (lower starting concentrations). Format: cell-based, Mycobacterium tuberculosis. Conditions: revaluation.
The next series has as its system Mycobacterium abscessus. Briefly: MIC, IC50, IC90 against nontuberculous mycobacteria (OD590). The format is cell-based. Conditions: M. abscessus.
Another series can be described thus: in vitro. To be noted: human.
The test system of a further series is Caco-2-cell monolayer. Briefly: Caco-2 permeability assay. On the procedure: The Caco-2 cell layer permeability assay is widely used as a more predictive in vitro model of absorption through the intestinal epithelium. […] For B–A permeability, test compound was added to the basal side of the Caco-2 monolayer and the transport of the compound to the apical side monitored. The amount of compound present in each compartment was quantified by LC-MS/MS.
recovered and analyzed by LC-MS/MS.
3.2. Caco-2 Permeability Assay
feeding at 2-day intervals.
Each experiment included the
contained transport buffer at pH 7.4.
3.3. Cytochrome P450 Inhibition Assay
and was < 0.2%. Samples were run in duplicate. Compounds were incubated with human liver
On the technique in general: Passage across Caco-2 layers is used to estimate intestinal permeability.

The nature of series [4]: Plasma protein binding by equilibrium dialysis. To be noted: Human plasma protein binding assay.
For series [5] the following is noted: human.
Where [6] appears, read: M. tuberculosis H37Rv, aerobic conditions, primary screen.

Usually IC50 stands for the concentration needed to halve the response being measured. One may read the IC90 as the concentration needed for an effect of 90%. What is called MIC is the lowest concentration that inhibits growth of the organism. For “4-[3-(4-Chlorophenyl)-1-(ethoxycarbonyl)indolizine-7-yl)-1-(2-(4-methoxyphenyl)-2-oxoethyl)pyridine-1-ium bromide [Compound 6c]”, the IC50 in [1] (setting [6]) was 12 µM; in series [2] it was 4.1 µM; in [3] (read-out: IC50 intracell), 7 µM; in the series with Mtb H37Rv it was 8.1 µM; in the series with M. tuberculosis H37Rv (aerobic), 6.7 µM; in the series with Mycobacterium abscessus, 16 µM. The 90% effect concentration (IC90) in series [1] (setting [6]) is 14 µM; in series [3] (read-out: IC90 intracell), 34 µM; with Mtb H37Rv, 23 µM; with M. tuberculosis H37Rv (aerobic), 9.5 µM; with Mycobacterium abscessus it was 21 µM. The MIC in series [1] (setting [6]) came out at 15 µM; in series [1] (MIC value taken from the first MIC assay), 15 µM; in the series on Mycobacterium avium, 50 µM; in the series with Mtb H37Rv (oxygen-deprived bacteria, aerobic 5 d), 75 µM; with M. tuberculosis H37Rv (repeated at lower starting concentrations, read-out: MIC aerobic condition) it was 9.5 µM.

In “in vitro”, `CC(=O)CC(c1ccccc1)c1c(O)c2ccccc2oc1=O` (centres unmarked) [Warfarin] had a recovery at 4 h, 5 µM of 96.7%.

The term efflux ratio denotes the permeability from basolateral to apical divided by that in the opposite direction, in the common usage. Take `CC(C)NC[C@H](O)COc1cccc2ccccc12` (racemic) [Propanolol]: the “Mean A→B Papp” value in the series with Caco-2-cell monolayer (Caco-2, apical to basolateral) is recorded as 12.7 10^−6cm/s. In addition, the “Mean B→A Papp” value in the series with Caco-2-cell monolayer (Caco-2, basolateral to apical) is given as 25 10^−6cm/s. The efflux ratio in the series with Caco-2-cell monolayer (Re = Papp (B→A)/Papp (A→B)) is given as 2. Further, the Recovery in series [4] was 93. Also, in series [5], the “Mean plasma fraction bound” value is reported as 79.3% and the “Mean plasma fraction unbound” value was 20.7%.
